Measurements published in patent publication US20150141381A1, “TETRACYCLINE COMPOUNDS HAVING TARGET THERAPEUTIC ACTIVITIES” (Paratek Pharmaceuticals, Inc., priority 2001, published 2015).
Where two headings read alike, the source gives them in different places.

What was measured:
E. coli mL308 225 = test: In Vitro Anti-Bacterial Activity Assay (MIC), gram negative; format: cell-based; settings: Escherichia coli, ML308225, 18 h, read-out: Antibiotic Activity Gram − (MIC)
S. aureus RN450 = test: In Vitro Anti-Bacterial Activity Assay (MIC), gram positive; format: cell-based; settings: Staphylococcus aureus, RN450, 18 h, gram positive bacteria; read-out: Antibiotic Activity Gram + (MIC)

Structure (SMILES)	MIC (E. coli mL308 225; gram negative bacteria)	MIC (S. aureus RN450)	MIC (E. coli mL308 225)
CN(C)[C@@H]1C(O)=C(C(N)=O)C(=O)[C@@]2(O)C(O)=C3C(=O)c4c(O)ccc(-c5ccc(CNc6ccccc6)cc5)c4C[C@H]3C[C@@H]12	> 4 µg/mL	< 4 µg/mL	–
COc1ccc(CNCCC#N)cc1-c1ccc(O)c2c1C[C@H]1C[C@H]3[C@H](N(C)C)C(O)=C(C(N)=O)C(=O)[C@@]3(O)C(O)=C1C2=O	> 4 µg/mL	< 4 µg/mL	–
CN(C)[C@@H]1C(O)=C(C(N)=O)C(=O)[C@@]2(O)C(O)=C3C(=O)c4c(O)ccc(-c5ccc(CNC#N)cc5)c4C[C@H]3C[C@@H]12	< 4 µg/mL	< 4 µg/mL	–
CN(C)c1cc(NCc2ccc(O)c(O)c2)c(O)c2c1C[C@H]1C[C@H]3[C@H](N(C)C)C(O)=C(C(N)=O)C(=O)[C@@]3(O)C(O)=C1C2=O	> 4 µg/mL	< 4 µg/mL	–
CN(C)c1cc(NCc2ccccc2OC(C)(C)C)c(O)c2c1C[C@H]1C[C@H]3[C@H](N(C)C)C(O)=C(C(N)=O)C(=O)[C@@]3(O)C(O)=C1C2=O	> 4 µg/mL	< 4 µg/mL	–
CN(C)[C@@H]1C(O)=C(C(N)=O)C(=O)[C@@]2(O)C(O)=C3C(=O)c4c(O)ccc(C(=O)CN5CCOCC5)c4C[C@H]3C[C@@H]12	> 4 µg/mL	< 4 µg/mL	–
CN(C)c1cc(CN2CCOCC2)c(O)c2c1C[C@H]1C[C@H]3[C@H](N(C)C)C(O)=C(C(N)=O)C(=O)[C@@]3(O)C(O)=C1C2=O	> 4 µg/mL	< 4 µg/mL	–
CC(CF)NCc1ccc(O)c2c1C[C@H]1C[C@H]3[C@H](N(C)C)C(O)=C(C(N)=O)C(=O)[C@@]3(O)C(O)=C1C2=O (stereo partly drawn)	–	< 4 µg/mL	> 4 µg/mL
CN(C)[C@@H]1C(O)=C(C(N)=O)C(=O)[C@@]2(O)C(O)=C3C(=O)c4c(O)ccc(CNCc5ccc(F)cc5)c4C[C@H]3C[C@@H]12	< 4 µg/mL	< 4 µg/mL	–
CC(C)CN(C=O)Cc1cc(N(C)C)c2c(c1O)C(=O)C1=C(O)[C@]3(O)C(=O)C(C(N)=O)=C(O)[C@@H](N(C)C)[C@@H]3C[C@@H]1C2	> 4 µg/mL	> 4 µg/mL	–
CN(C)[C@@H]1C(O)=C(C(N)=O)C(=O)[C@@]2(O)C(O)=C3C(=O)c4c(O)ccc(-c5ccc(/C=N/CC#N)cc5)c4C[C@H]3C[C@@H]12	> 4 µg/mL	< 4 µg/mL	–
CN(C)[C@@H]1C(O)=C(C(N)=O)C(=O)[C@@]2(O)C(O)=C3C(=O)c4c(O)ccc(-c5ccc(NC(=O)c6ccco6)cc5)c4C[C@H]3C[C@@H]12	> 4 µg/mL	< 4 µg/mL	–
CN(C)[C@@H]1C(O)=C(C(N)=O)C(=O)[C@@]2(O)C(O)=C3C(=O)c4c(O)ccc(-c5cccc(NC(=O)c6ccno6)c5)c4C[C@H]3C[C@@H]12	> 4 µg/mL	< 4 µg/mL	–
CC(=O)Nc1ccc(-c2ccc(O)c3c2C[C@H]2C[C@H]4[C@H](N(C)C)C(O)=C(C(N)=O)C(=O)[C@@]4(O)C(O)=C2C3=O)cc1	> 4 µg/mL	< 4 µg/mL	–
COCC(=O)Nc1ccc(-c2ccc(O)c3c2C[C@H]2C[C@H]4[C@H](N(C)C)C(O)=C(C(N)=O)C(=O)[C@@]4(O)C(O)=C2C3=O)cc1	< 4 µg/mL	< 4 µg/mL	–
CN(C)[C@@H]1C(O)=C(C(N)=O)C(=O)[C@@]2(O)C(O)=C3C(=O)c4c(O)ccc(-c5ccc(NC(=O)OCCF)cc5)c4C[C@H]3C[C@@H]12	> 4 µg/mL	< 4 µg/mL	–
CN(C)[C@@H]1C(O)=C(C(N)=O)C(=O)[C@@]2(O)C(O)=C3C(=O)c4c(O)ccc(-c5ncccn5)c4C[C@H]3C[C@@H]12	< 4 µg/mL	< 4 µg/mL	–
CN(C)c1cc(CNC(=O)CC(F)(F)F)c(O)c2c1C[C@H]1C[C@H]3[C@H](N(C)C)C(O)=C(C(N)=O)C(=O)[C@@]3(O)C(O)=C1C2=O	< 4 µg/mL	< 4 µg/mL	–
CN(C)c1cc(CNc2ccccc2)c(O)c2c1C[C@H]1C[C@H]3[C@H](N(C)C)C(O)=C(C(N)=O)C(=O)[C@@]3(O)C(O)=C1C2=O	> 4 µg/mL	< 4 µg/mL	–
CSCc1cc(I)c2c(c1O)C(=O)C1=C(O)[C@]3(O)C(=O)C(C(N)=O)=C(O)[C@@H](N(C)C)[C@@H]3C[C@@H]1C2	< 4 µg/mL	< 4 µg/mL	–
COC(=O)C(=O)Nc1ccc(-c2ccc(O)c3c2C[C@H]2C[C@H]4[C@H](N(C)C)C(O)=C(C(N)=O)C(=O)[C@@]4(O)C(O)=C2C3=O)cc1	> 4 µg/mL	< 4 µg/mL	–
CN(C)[C@@H]1C(O)=C(C(N)=O)C(=O)[C@@]2(O)C(O)=C3C(=O)c4c(O)ccc(C(=O)CN5CCCCC5)c4C[C@H]3C[C@@H]12	< 4 µg/mL	< 4 µg/mL	–
C[C@H]1c2ccc(N3CCOCC3)c(O)c2C(=O)C2=C(O)[C@]3(O)C(=O)C(C(N)=O)=C(O)[C@@H](N(C)C)[C@@H]3[C@@H](O)[C@@H]21	> 4 µg/mL	> 4 µg/mL	–
CN(C)[C@@H]1C(O)=C(C(N)=O)C(=O)[C@@]2(O)C(O)=C3C(=O)c4c(ccc(N5CCOCC5)c4O)C[C@H]3C[C@@H]12	> 4 µg/mL	> 4 µg/mL	–

Structure (SMILES)	MIC (E. coli mL308 225; gram negative bacteria)	MIC (S. aureus RN450)	MIC (E. coli mL308 225)
CN(C)c1cc(-c2ccc(CN3CCN(CCO)CC3)o2)c(O)c2c1C[C@H]1C[C@H]3[C@H](N(C)C)C(O)=C(C(N)=O)C(=O)[C@@]3(O)C(O)=C1C2=O	> 4 µg/mL	< 4 µg/mL	–
CN(C)[C@@H]1C(O)=C(C(N)=O)C(=O)[C@@]2(O)C(O)=C3C(=O)c4c(O)ccc(CN5CCOCC5)c4C[C@H]3C[C@@H]12	> 4 µg/mL	< 4 µg/mL	–
CN(C)c1cc(N2CCOCC2)c(O)c2c1C[C@H]1C[C@H]3[C@H](N(C)C)C(O)=C(C(N)=O)C(=O)[C@@]3(O)C(O)=C1C2=O	> 4 µg/mL	> 4 µg/mL	–
CC1CCN(CC(=O)c2ccc(O)c3c2C[C@H]2C[C@H]4[C@H](N(C)C)C(O)=C(C(N)=O)C(=O)[C@@]4(O)C(O)=C2C3=O)CC1	> 4 µg/mL	< 4 µg/mL	–
CN(C)[C@@H]1C(O)=C(C(N)=O)C(=O)[C@@]2(O)C(O)=C3C(=O)c4c(O)ccc(CNCc5ccccc5)c4C[C@H]3C[C@@H]12	< 4 µg/mL	< 4 µg/mL	–
COCc1cccc(-c2ccc(O)c3c2C[C@H]2C[C@H]4[C@H](N(C)C)C(O)=C(C(N)=O)C(=O)[C@@]4(O)C(O)=C2C3=O)c1	< 4 µg/mL	< 4 µg/mL	–
CCCC(C)c1ccc(OC)c(-c2ccc(O)c3c2C[C@H]2C[C@H]4[C@H](N(C)C)C(O)=C(C(N)=O)C(=O)[C@@]4(O)C(O)=C2C3=O)c1 (stereo partly drawn)	> 4 µg/mL	< 4 µg/mL	–
COC(=O)CCc1cccc(-c2ccc(O)c3c2C[C@H]2C[C@H]4[C@H](N(C)C)C(O)=C(C(N)=O)C(=O)[C@@]4(O)C(O)=C2C3=O)c1	> 4 µg/mL	< 4 µg/mL	–
CC(=O)Cc1cc(I)c2c(c1O)C(=O)C1=C(O)[C@]3(O)C(=O)C(C(N)=O)=C(O)[C@@H](N(C)C)[C@@H]3C[C@@H]1C2	> 4 µg/mL	> 4 µg/mL	–
CN(C)c1cc(NCc2ccc([N+](=O)[O-])o2)c(O)c2c1C[C@H]1C[C@H]3[C@H](N(C)C)C(O)=C(C(N)=O)C(=O)[C@@]3(O)C(O)=C1C2=O	> 4 µg/mL	< 4 µg/mL	–
CN(C)c1cc(-c2ccc(CN3CCN(c4ccccc4F)CC3)o2)c(O)c2c1C[C@H]1C[C@H]3[C@H](N(C)C)C(O)=C(C(N)=O)C(=O)[C@@]3(O)C(O)=C1C2=O	> 4 µg/mL	> 4 µg/mL	–
CN1CCN(Cc2ccc(-c3cc(N(C)C)c4c(c3O)C(=O)C3=C(O)[C@]5(O)C(=O)C(C(N)=O)=C(O)[C@@H](N(C)C)[C@@H]5C[C@@H]3C4)o2)CC1	> 4 µg/mL	< 4 µg/mL	–
CN(C)CCN(Cc1ccccc1)Cc1ccc(-c2cc(N(C)C)c3c(c2O)C(=O)C2=C(O)[C@]4(O)C(=O)C(C(N)=O)=C(O)[C@@H](N(C)C)[C@@H]4C[C@@H]2C3)o1	> 4 µg/mL	> 4 µg/mL	–
CN(C)c1cc(CN2CCCC2)c(O)c2c1C[C@H]1C[C@H]3[C@H](N(C)C)C(O)=C(C(N)=O)C(=O)[C@@]3(O)C(O)=C1C2=O	> 4 µg/mL	< 4 µg/mL	–
CN(C)[C@@H]1C(O)=C(C(N)=O)C(=O)[C@@]2(O)C(O)=C3C(=O)c4c(O)ccc(CN5CCCC5)c4C[C@H]3C[C@@H]12	< 4 µg/mL	< 4 µg/mL	–
CN(C)[C@@H]1C(O)=C(C(N)=O)C(=O)[C@@]2(O)C(O)=C3C(=O)c4c(O)ccc(-c5cccnc5)c4C[C@H]3C[C@@H]12	< 4 µg/mL	< 4 µg/mL	–
CN(C)c1cc(NC2CC(C)(C)NC(C)(C)C2)c(O)c2c1C[C@H]1C[C@H]3[C@H](N(C)C)C(O)=C(C(N)=O)C(=O)[C@@]3(O)C(O)=C1C2=O	> 4 µg/mL	> 4 µg/mL	–
CN(C)[C@@H]1C(O)=C(C(N)=O)C(=O)[C@@]2(O)C(O)=C3C(=O)c4c(O)ccc(-c5ccncc5)c4C[C@H]3C[C@@H]12	< 4 µg/mL	< 4 µg/mL	–
CN(C)[C@@H]1C(O)=C(C(N)=O)C(=O)[C@@]2(O)C(O)=C3C(=O)c4c(O)ccc(-c5ccc(CNc6cccnc6)cc5)c4C[C@H]3C[C@@H]12	> 4 µg/mL	< 4 µg/mL	–
CN(C)[C@@H]1C(O)=C(C(N)=O)C(=O)[C@@]2(O)C(O)=C3C(=O)c4c(O)c(CNc5ccccc5)cc(I)c4C[C@H]3C[C@@H]12	> 4 µg/mL	< 4 µg/mL	–
CC(=O)OCC(=O)Nc1ccc(-c2ccc(O)c3c2C[C@H]2C[C@H]4[C@H](N(C)C)C(O)=C(C(N)=O)C(=O)[C@@]4(O)C(O)=C2C3=O)cc1	> 4 µg/mL	< 4 µg/mL	–
CN(C)[C@@H]1C(O)=C(C(N)=O)C(=O)[C@@]2(O)C(O)=C3C(=O)c4c(O)ccc(-c5ccc(NC(=O)NCCCCl)cc5)c4C[C@H]3C[C@@H]12	> 4 µg/mL	< 4 µg/mL	–
COC(=O)CCC(=O)Nc1ccc(-c2ccc(O)c3c2C[C@H]2C[C@H]4[C@H](N(C)C)C(O)=C(C(N)=O)C(=O)[C@@]4(O)C(O)=C2C3=O)cc1	> 4 µg/mL	< 4 µg/mL	–
CN1CCN(c2cc(N(C)C)c3c(c2O)C(=O)C2=C(O)[C@]4(O)C(=O)C(C(N)=O)=C(O)[C@@H](N(C)C)[C@@H]4C[C@@H]2C3)CC1	> 4 µg/mL	> 4 µg/mL	–
